Test results: patent US9849174B2, “Methods and compositions related to immunogenic fibrils” (The Board of Regents of the University of Texas System, priority 2009, dated 2017)
“Also recorded” adds a separate entry of the source. Square brackets hold non-standard residues; d marks the D form. Ends that are not written are not given here.

Key:
OT-II cells = assay: In vitro activation assay of OT-II lymphocytes on nanofiber-coated wells, cytokines by flow cytometry; format: cell-based, mice; details: 6 h stimulation; for Cytokine (IFN-γ, IL-2) production by OT-II cells: nanofibers without OVA
Description: OVA-KFE8D Nanofibers Induce Robust CD4 T Helper Cell Responses. OVA (ISQAVHAAHAEINEAGR) (SEQ ID NO: 26), is a well-characterized CD4+ T helper epitope, a portion of which is also recognized by B cells (ISQAVHAAHA) (SEQ ID NO: 58) (Robertson, et al., 2000). Therefore, immunization with OVA leads to both CD4+ T cell activation and antibody production and studies have shown that antibody responses against OVA are CD4+ T celldependent (Rudra, et al., 2012; Robertson, et al., 2000). To assess whether the enantiomeric nature of nanofibers that contributed to enhanced antibody responses also leads to differential CD4+ T helper cell functionality, we utilized transgenic mice (OT-II mice) that have CD4+ T cells (OT-II cells) whose receptors recognize OVA in the context of MHC-class II molecules.30 CD4+ T cell responses were assessed using an in vitro activation assay. Whole lymphocyte extracts (containing antigen-presenting cell, B cell, and CD4+ T cell populations) from OT-II mice were cultured in wells coated with OVA-bearing enantiomers, and 6 h later the production of cytokines IFN-γ and IL-2 were measured using flow cytometry. Lymphocytes stimulated with PBS or free OVA peptide were used as negative and positive controls, respectively.

[1] = tested on: antigen-specific T cells in the draining lymph nodes; assay: CD8 T cell responses after footpad immunization, tetramer staining of draining lymph nodes; format: in vivo, mice
C57BL/6 mice [2] = assay: Subcutaneous immunization with OVA-KFE8 enantiomers, antibody responses by ELISA (Example 4); format: in vivo; details: for Dominant antibody isotype: plates coated with free OVA peptide; for Total IgG antibody response: s.c., boost day 28
CFSE-labeled OT-II cells = assay: Footpad adoptive transfer of CFSE-labeled OT-II cells one week after immunization; format: in vivo, mice; details: cells transferred a week after footpad immunization, lymph nodes 24 h later
Description: OVA-KFE8D Nanofibers Prolong Antigen Presentation at the Immunization Site. Previous studies from our lab have shown that peptide nanofiber vaccines (all L-amino acids) are cleared from the immunization site as early as 10 days after vaccination compared to depot forming adjuvants (Chesson, et al., 2014). To investigate whether the reduced proteolytic susceptibility of D-amino acid peptides prolongs antigen-presentation at the immunization site, we used adoptive transfer experiments where mice were injected at the immunization site with CFSElabeled OT-II cells (OVA-specific CD4+ T cells) and measured proliferation of the OT-II cells (in response to existing antigen) via the dilution of the CFSE label using flow cytometry. For these studies, immunizations and adoptive transfers were done in the footpads to maximize antigen depot-OT-II CD4+ T cell interaction and easy collection of draining lymph nodes. Mice were immunized with OVA-KFE8L or OVA-KFE8D nanofibers and a week later CFSE-labeled OT-II cells were transferred at the vaccination site. Twenty-four hours later, mice were sacrificed and draining lymph nodes were extracted.

C57BL/6 mice [3] = assay: Subcutaneous immunization of mice, serum antibody titers and isotypes by ELISA (Example 1); format: in vivo
Experimental: To investigate how fibrillization affected the immunogenicity of OVA, C57BL/6 mice were immunized subcutaneously with the different peptides and boosted with additional peptide at 28 days (see methods). Serum was collected seven days after the boost, and levels of various immunoglobulins were measured.
Immunizations. […] Stock solutions were then diluted in sterile, endotoxin-free PBS to working concentrations. […] CFA-adjuvanted groups received the same volume and total peptide dose, prepared by emulsifying peptide/PBS solutions 1:1 in CFA. […] CFA groups were boosted in incomplete Freund's adjuvant (IFA). Mice receiving mixtures of Q11 and OVA received 100 nmol of each peptide in the first injection and 50 nmol of each in the second. Seven days after the boost, the mice were sacrificed, and sera and spleens were harvested.
Determination of antibody titers. High-binding ELISA plates (eBioscience) were coated with either 20 μg/mL peptide in PBS or PBS alone (for uncoated background subtraction) overnight at 4° C. […] To determine titers for each antiserum, background absorbance values from uncoated wells were subtracted from coated wells, and net absorbances were compared to cutoff values. The cutoff consisted of the mean plus three times the standard deviation of the negative control group (mice receiving OVA without adjuvant) for each corresponding dilution. Any sample dilutions having absorbances above this cutoff value were considered positive readings. The titer was considered as the highest dilution for which it and all lower dilutions had positive readings. If no positive dilutions were present the titer was considered to be 10^2. […] Antibody isotypes were analyzed similarly using a mouse monoclonal antibody kit containing goat anti-mouse IgG1, IgG2a, IgG2b, IgG3, and IgM (Sigma).

[4] = ranges: high and low values among three batches for each peptide
Experimental: Endotoxin levels of all formulations were tested using a Limulus Amebocyte Lystae (LAL) chromogenic end point assay (Lonza, USA).
To account for batch-to-batch variability three different sets of peptides were synthesized for immunizing mice.

[5] = set-up: species or system mice; details: mouse, in vivo
Description: Peptide assemblies (stained brown and indicated by arrows) were found at the cortex of the lymph nodes by wk 1 and continued to persist up to wk 6. […] Although the mechanism of trafficking is unknown, co-staining for macrophages, dendritic cells, or B cells might provide further insights into the uptake and processing of these peptides in vivo.
Immunohistochemistry Freshly dissected skeletal muscle and inguinal lymph nodes were fixed overnight with 4% formaldehyde in phosphate-buffered saline (pH 7.2) and the tissue was processed and embedded in paraffin at the Human Tissue Resource Center (University of Chicago). The paraffin blocks were cut on a microtome (Leica, USA) into 4 μm thick sections and were deparaffinized with xylene and rehydrated with gradient ethanol. The sections were boiled in 10 mM sodium citrate solution (pH 6.0) for 10 min to retrieve the antigens and blocked with 5% BSA in PBS for 1 hr. The sections were then incubated with Horseradish Peroxidase Avidin D (Vector Laboratories, CA) for 3 hrs, and the biotin was visualized using a peroxidase substrate diaminobenzidine kit (Vector Laboratories, CA). The sections were also counterstained with Mayer's hematoxylin solution (Sigma-Aldrich, USA) for 10 mins. The slides were dehydrated with gradient ethanol and xylene and mounted with Permount Mounting Medium (Fisher Scientific, PA). Images were acquired using a Zeiss Axioskop at the Microscopy Core Facility (University of Chicago).

C57BL/6 mice [6] = assay: Long-term serum antibody ELISA after immunization with Q11-linked peptides (Example 2); details: boost at wk 4
Experimental: The dose dependence and longevity of the antibody response to OVA-Q11 was further investigated and antibody responses against the malarial peptide epitope (NANP)3 coupled to Q11 were also characterized. Mice were immunized with two different doses of OVA-Q11 (100 nmol and 50 nmol), or 100 nmol of (NANP)3-Q11 and boosted with half the dose at wk 4. Mice were bled on a weekly basis up to wk 6, once at wk 8, and once every four weeks thereafter.
Animals and Immunizations Peptides were dissolved in sterile water (8 mM stock), incubated overnight at 4° C., and diluted in sterile PBS (2 mM working concentration) prior to immunizations. For the malaria peptide, (NANP)3-Q11, the formulations were incubated in PBS overnight to ensure complete fibril formation. […] Female C57BL/6 mice (6-8 weeks old, Taconic Farms, IN) were immunized subcutaneously with two 50 μL injections in the back, with each injection containing 100 nmol of peptide. […]
Determination of Antibody Production ELISA plates (eBioscience) were coated with 20 μg/mL of peptide or 0.5 μg/mL of whole protein in PBS overnight at 4° C. […] The reaction was stopped using 50 μL of 1 M phosphoric acid and 100 μL of the solution was transferred to fresh plates and absorbance values were read at 450 nm. Absorbance values of PBS (no antigen) coated wells were subtracted to account for background. […]

[7] = tested on: KO mice lacking both the αβ and γδ receptors; assay: Immunization of T cell receptor KO mice, antibody production; format: in vivo; details: over 6 wks
Description: To confirm the necessity of T cells, KO mice lacking both the αβ and γδ receptors for CD4^+ T cells were immunized with OVA-Q11 along with wild type controls. […] The wild type control mice responded as expected. […] To ensure that the KO mice are capable of eliciting immune responses, they were immunized with a T-independent antigen, NP-Ficoll. […] This finding might not be surprising because OVA is a strong MHC class II peptide, containing both B and T cell determinants.

CC(=O)N[C@H](Cc1ccccc1)C(=O)N[C@H](CCCCN)C(=O)N[C@H](Cc1ccccc1)C(=O)N[C@H](CCC(=O)O)C(=O)N[C@H](Cc1ccccc1)C(=O)N[C@H](CCCCN)C(=O)N[C@H](Cc1ccccc1)C(=O)N[C@H](CCC(=O)O)C(N)=O [KFE8(D), Ac-^DF^DK^DF^DE^DF^DK^DF^DE-Am]
Cytokine (IFN-γ, IL-2) production by OT-II cells (OT-II cells): no cytokine production

CC(=O)N[C@@H](Cc1ccccc1)C(=O)N[C@@H](CCCCN)C(=O)N[C@@H](Cc1ccccc1)C(=O)N[C@@H](CCC(=O)O)C(=O)N[C@@H](Cc1ccccc1)C(=O)N[C@@H](CCCCN)C(=O)N[C@@H](Cc1ccccc1)C(=O)N[C@@H](CCC(=O)O)C(N)=O [KFE8(L), Ac-FKFEFKFE-Am]
Cytokine (IFN-γ, IL-2) production by OT-II cells (OT-II cells): no cytokine production

H2N-FKFEFKFEGGAAYSIINFEKL-Am (H-FKFEFKFEGGAAYSIINFEKL-NH2; not fully specified (some residues)) [SIN-KFE8(L)]
Memory CD8 T cell response: antigen-specific T cells in lymph nodes, compared with the enantiomer ([1]; boost day 28, evaluated day 32): significantly higher numbers of antigen-specific T cells | Effector and memory CD8+ T cell responses / tetramer+ CD8 T cells ([1]; mouse, in vivo): robust effector and memory CD8+ T cell responses; also recorded: higher numbers of tetramer+CD8 T cells

H2N-ISQAVHAAHAEINEAGRSGSGFKFEFKFE-Am (H-ISQAVHAAHAEINEAGRSGSGFKFEFKFE-NH2; not fully specified (some residues)) [OVA-KFE8(L)]
IFN-γ production by OT-II cells compared to wells coated with PBS or bare nanofibers (OT-II cells): significantly higher levels | IL-2 production by OT-II cells compared to wells coated with PBS or bare nanofibers (OT-II cells): significantly higher levels | Dominant antibody isotype (C57BL/6 mice [2]): IgG1 | Transferred OT-II cells that had proliferated (shift in CFSE intensity) (CFSE-labeled OT-II cells): only background levels of proliferation

H2N-ISQAVHAAHAEINEAGRSGSG^DF^DK^DF^DE^DF^DK^DF^DE-Am (H-ISQAVHAAHAEINEAGRSGSG[dF][dK][dF][dE][dF][dK][dF][dE]-NH2; SMILES CC[C@H](C)[C@H](N)C(=O)N[C@@H](CO)C(=O)N[C@@H](CCC(N)=O)C(=O)N[C@@H](C)C(=O)N[C@H](C(=O)N[C@@H](Cc1c[nH]cn1)C(=O)N[C@@H](C)C(=O)N[C@@H](C)C(=O)N[C@@H](Cc1c[nH]cn1)C(=O)N[C@@H](C)C(=O)N[C@@H](CCC(=O)O)C(=O)N[C@H](C(=O)N[C@@H](CC(N)=O)C(=O)N[C@@H](CCC(=O)O)C(=O)N[C@@H](C)C(=O)NCC(=O)N[C@@H](CCCNC(=N)N)C(=O)N[C@@H](CO)C(=O)NCC(=O)N[C@@H](CO)C(=O)NCC(=O)N[C@H](Cc1ccccc1)C(=O)N[C@H](CCCCN)C(=O)N[C@H](Cc1ccccc1)C(=O)N[C@H](CCC(=O)O)C(=O)N[C@H](Cc1ccccc1)C(=O)N[C@H](CCCCN)C(=O)N[C@H](Cc1ccccc1)C(=O)N[C@H](CCC(=O)O)C(N)=O)[C@@H](C)CC)C(C)C) [OVA-KFE8(D)]
Difference in IFN-γ and IL-2 production / CD4+ T cell activation between the enantiomers (OT-II cells): no significant differences | IFN-γ production by OT-II cells compared to wells coated with PBS or bare nanofibers (OT-II cells): significantly higher levels | IL-2 production by OT-II cells compared to wells coated with PBS or bare nanofibers (OT-II cells): significantly higher levels | Antibody isotype levels compared to OVA-KFE8(L) (C57BL/6 mice [2]; IgG2a, IgG2b, IgG3, IgM, IgA): Significantly higher levels of all antibody isotypes | Anti-OVA antibodies on plates coated with free OVA peptide compared to OVA-KFE8(L) (C57BL/6 mice [2]; mouse, in vivo): higher levels of anti-OVA antibodies; also recorded: Significantly higher levels of antibodies | IgG2a, IgM, and IgA production compared to OVA in ISA-720 (C57BL/6 mice [2]; mouse, in vivo): significantly higher | OVA-specific antibodies compared to OVA-KFE8(L), SGSG-KFE8 control wells subtracted (C57BL/6 mice [2]; mouse, in vivo): significantly higher levels of OVA-specific antibodies | Dominant antibody isotype (C57BL/6 mice [2]): IgG1 | Total IgG antibody response (C57BL/6 mice [2]): robust antibody responses | Antibody levels compared to OVA-KFE8(L) nanofibers or OVA in ISA-720 (C57BL/6 mice [2]; series of serum dilutions): Significantly higher levels of total IgG | Antibody levels pre-boost compared to OVA-KFE8(L) (C57BL/6 mice [2]; week 2 up to the boost at week 4): significantly higher levels of antibodies

H2N-^DF^DK^DF^DE^DF^DK^DF^DEGGAAYSIINFEKL-Am [SIN-KFE8(D)]
Effector CD8 T cell response: antigen-specific T cells in draining lymph nodes, compared with the enantiomer ([1]; footpad, boost day 5, evaluated day 8): significantly lower numbers of antigen-specific T cells

H-ISQAVHAAHAEINEAGR-OH [OVA, H2N-ISQAVHAAHAEINEAGR-OH, reference compound]
Total IgG antibody response (C57BL/6 mice [2]): did not raise any detectable IgG | Total IgG response (C57BL/6 mice [3]; peptide in PBS without added adjuvant, s.c., boost day 28, serum 7 days after boost): did not raise detectable IgG; also recorded: did not elicit a response | IgG titer (C57BL/6 mice [3]; without adjuvant, baseline level of detection): 10^2

ISQAVHAAHAEINEAGRSGSGQQKFQFQFEQQ-NH2 (C-terminus assumed) [O-Q11]
Endotoxin [4]: 0.08-0.28 EU/mL | Localization of peptide assemblies [5]: localized to the draining lymph nodes | Persistence of peptide assemblies in lymph nodes [5]: ≤ 6 wk | Time at which peptide assemblies were found at the cortex of the lymph nodes [5]: ≤ 1 wk

NANPNANPNANPSGSGQQKFQFQFEQQ [(NANP)3-Q11]
Spike in antibody levels after the boost (C57BL/6 mice [6]; 100 nmol): no spike in antibody levels | Time for which antibodies were detectable (C57BL/6 mice [6]): up to 28 wks | Antibody production in T cell receptor KO mice [7]: no antibody production
